Data: patent US12208228B2, “Microneedle array comprising a heat-producing element” (LTS LOHMANN THERAPIE-SYSTEME AG, priority 2019, dated 2025)

Assay: In vitro permeation studies in static vertical Franz cells, microneedle systems pressed into dermatomized minipig skin
Assay type: in vitro ADME, Göttingen Minipigs
Excerpt: The back part of Gottinger Minipighaut (Ellegaard Göttingen Minipigs Agricultural Service, Dalmose, Denmark) was used as the skin. The skin, which is delivered as a so-called full skin without subcutaneous fatty tissue in a frozen state, must first be thawed at room temperature and carefully shaved with plenty of water without using any shaving foam to remove the bristles. The skin is then dermatomized or cut to a layer thickness of 800 μm with the aid of an Acculan 3TI battery-powered electric dermatome (Aesculap AG, Tuttlingen, Germany). Circular punched pieces having a diameter of 25 mm are then knocked out of the pieces of skin treated in this way with the help of a corresponding punching tool, for example, a handle punch and are stored shrink-wrapped in PE bags until further use at −20 degrees Celsius (maximum storage period under these conditions up to 12 months).
The permeation studies were performed in static and vertical Franz cells (Glastechnik Gräfenroda, Germany) with a diffusion area of 1.595 cm^2 and an acceptor volume of 10 ml. The acceptor medium used was phosphate buffer having a pH value of 7.4 according to DAB 10, tempered to 32° C. during the entire permeation time and constantly stirred for uniform mixing of the permeated active ingredient. The acceptor medium was completely replaced by fresh one at the scheduled sampling times. Before the pre-prepared skin punches are clamped in the Franz cells and filled with acceptor, the microneedle systems must first be pressed into the top layer of skin using a manufactured pressure adapter, in the sense of a nail gun with an impulse strength of 150 N/cm^2.
Before filling with the acceptor and inserting the Franz cells into the water bath controlled to a temperature of 32° C., the temperature-controlled cell heads are put on or they are prepared with an active heat pack mixture, see also the figures including explanations.
The analytical determination was carried out by means of HPLC on a C18-Inertsil separation column (250×4.6 mm, 5 μm particle size; VDS Optilab, Berlin) by means of UV detection at 282 nm and at 30 degrees Celsius. A mixture consisting of acetonitrile, methanol and 0.02167 m sodium dihydrogen phosphate solution 10:20:85 (v %/v %/v %) and a pH of 3.2 was used as the eluent. The flow rate was 1.0 ml/min and 20 μl were injected.
The analytical determination was carried out by means of HPLC on a C12-Synergi-Max-RP separation column (150×4.6 mm, 4 μm particle size; Phenomenex, Aschaffenburg) by means of UV detection at 273 nm and at 25 degrees Celsius. A mixture consisting of methanol and HPLC water 40:60 (v %/v %) was used as an eluent. The flow rate was 1.0 ml/min and 20 μl were injected.

SMILES | lag time (FIG. 5, inventive example with external heat generation (heatable thermostated-water cell head), period of 8 hours) | amount or rate of release of API, factor greater than that of the reference (FIG. 5, inventive example with heat (heatable cell head) vs reference without heat, 8 hours) | lag time (FIG. 5, reference system without additional heat generation, period of 8 hours) | lag time of reference larger than inventive example by a factor (FIG. 5, reference without heat vs inventive example with heat) | lag time (FIG. 2, inventive example with external heat generation (heatable thermostated-water cell head), period up to 6 hours) | amount or rate of release of API, factor greater than that of the reference (FIG. 2, inventive example with heat (heatable cell head) vs reference without heat, up to 6 hours) | lag time (FIG. 2, reference system without additional heat generation, period up to 6 hours) | lag time of reference larger than inventive example by a factor (FIG. 2, reference without heat vs inventive example with heat) | lag time (FIG. 3, inventive example with external heat generation (heatable thermostated-water cell head), period of 60 minutes) | amount or rate of release of API, factor greater than that of the reference (FIG. 3, inventive example with heat (heatable cell head) vs reference without heat, 60 minutes) | lag time (FIG. 3, reference system without additional heat generation, period of 60 minutes) | lag time of reference larger than inventive example by a factor (FIG. 3, reference without heat vs inventive example with heat) | amount or rate of release of API, factor greater than that of the reference (FIG. 4, inventive example with commercial heat pack vs reference without heat, up to 6 hours) | lag time (FIG. 4, inventive example with heat from commercial heat pack (Thermopad; pyrophoric iron, activated carbon, sodium chloride), period up to 6 hours) | lag time (FIG. 4, reference system without additional heat generation, period up to 6 hours) | lag time of reference larger than inventive example by a factor (FIG. 4, reference without heat vs inventive example with heat pack)
Cn1c(=O)c2c(ncn2C)n(C)c1=O [caffeine, Caffeine] | 40 min | ~2 | 100 min | 2.5 |  |  |  |  |  |  |  |  |  |  |  | 
CNS(=O)(=O)Cc1ccc2[nH]cc(CCN(C)C)c2c1 [sumatriptan succinate, Sumatriptan succinate] |  |  |  |  | 20 min | ~5 | 40 min | 2 | 0.5 min | ~4 | 1.0 min | 2 | ~8 | 0.1 min | 0.4 min | 4
